Measurements: ChEMBL document CHEMBL3091359, “Potent oxazolidinone antibacterials with heteroaromatic C-ring substructure” (ACS Med Chem Lett, 2013)
pIC50: −log10 of the molar value. ≈ marks a conversion by molar mass, not a printed value.

What was measured:
Staphylococcus aureus [1] = assay: Ratio of linezolid MIC to compound MIC for Staphylococcus aureus SR20549 clinical isolate; assay type: functional
Haemophilus influenzae = assay: Antibacterial activity against Haemophilus influenzae SR27914 clinical isolate assessed as […] by CLSI broth microdilution method; assay type: functional
Moraxella catarrhalis = assay: Antibacterial activity against Moraxella catarrhalis SR26840 clinical isolate assessed as […] by CLSI broth microdilution method; assay type: functional
Enterococcus faecium = assay: Antibacterial activity against Enterococcus faecium SR7940 clinical isolate assessed as […] by CLSI broth microdilution method; assay type: functional
Staphylococcus aureus [2] = assay: Antibacterial activity against linezolid-resistant Staphylococcus aureus NRS271 clinical isolate harboring G2576T mutation in peptidyl transferase center domain V of 23S rRNA gene assessed as […] by CLSI broth microdilution method; assay type: functional
Staphylococcus aureus [3] = assay: Antibacterial activity against Staphylococcus aureus Smith clinical isolate assessed as […] by CLSI broth microdilution method; assay type: functional
Staphylococcus aureus [4] = assay: Ratio of linezolid MIC to compound MIC for Staphylococcus aureus Smith clinical isolate; assay type: functional
Enterococcus faecalis = assay: Antibacterial activity against Enterococcus faecalis SR1004 clinical isolate assessed as […] by CLSI broth microdilution method; assay type: functional
Staphylococcus aureus [5] = assay: Antibacterial activity against methicillin-resistant Staphylococcus aureus SR3637 clinical isolate infected in iv dosed JCL/ICR systemic infection model assessed as mortality administered after 1 hr of infection measured for 7 days; assay type: functional
Staphylococcus aureus [6] = assay: Antibacterial activity against methicillin-resistant Staphylococcus aureus SR3637 clinical isolate assessed as […] by CLSI broth microdilution method; assay type: functional
Streptococcus pneumoniae [7] = assay: Antibacterial activity against penicillin-resistant Streptococcus pneumoniae SR11031 clinical isolate assessed as […] by CLSI broth microdilution method; assay type: functional
Staphylococcus aureus [8] = assay: Antibacterial activity against Staphylococcus aureus SR20549 clinical isolate assessed as […] by CLSI broth microdilution method; assay type: functional
Streptococcus pneumoniae [9] = assay: Antibacterial activity against Streptococcus pneumoniae SR26207 clinical isolate assessed as […] by CLSI broth microdilution method; assay type: functional
Staphylococcus aureus [10] = assay: Antibacterial activity against methicillin-resistant Staphylococcus aureus SR3637 clinical isolate infected in po dosed JCL/ICR systemic infection model assessed as mortality administered after 1 hr of infection measured for 7 days; assay type: functional
Cytochrome P450 2D6 = Cytochrome P450 2D6 (Homo sapiens, UniProt P10635); assay: Inhibition of human CYP2D6 assessed as dextromethorphan O-demethylation after 20 mins by LC-MS/MS analysis; assay type: ADME
Cytochrome P450 2D6, sequence (P10635 whole entry): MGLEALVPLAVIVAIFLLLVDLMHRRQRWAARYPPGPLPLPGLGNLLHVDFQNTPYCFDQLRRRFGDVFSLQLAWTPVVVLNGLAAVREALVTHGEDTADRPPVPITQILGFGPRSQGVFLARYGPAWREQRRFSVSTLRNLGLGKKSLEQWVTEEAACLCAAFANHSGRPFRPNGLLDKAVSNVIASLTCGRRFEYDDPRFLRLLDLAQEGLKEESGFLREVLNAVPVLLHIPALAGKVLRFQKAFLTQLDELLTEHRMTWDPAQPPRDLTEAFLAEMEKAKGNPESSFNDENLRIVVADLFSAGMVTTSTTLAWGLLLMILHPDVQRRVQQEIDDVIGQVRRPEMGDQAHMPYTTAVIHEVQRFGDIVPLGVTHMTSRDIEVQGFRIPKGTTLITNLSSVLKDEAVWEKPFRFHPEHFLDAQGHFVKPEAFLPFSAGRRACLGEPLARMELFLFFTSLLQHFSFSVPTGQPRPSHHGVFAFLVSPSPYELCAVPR

MAO-B = target: T1, MAO-B (Rattus norvegicus, UniProt P19643); assay: Inhibition of rat forebrain MAO-B using [14C]PEA as substrate at 30 uM preincubated for 20 mins followed by substrate addition measured after 10 mins by liquid scintillation counting analysis; settings: probe [14C]PEA
T1 sequence (P19643 whole entry): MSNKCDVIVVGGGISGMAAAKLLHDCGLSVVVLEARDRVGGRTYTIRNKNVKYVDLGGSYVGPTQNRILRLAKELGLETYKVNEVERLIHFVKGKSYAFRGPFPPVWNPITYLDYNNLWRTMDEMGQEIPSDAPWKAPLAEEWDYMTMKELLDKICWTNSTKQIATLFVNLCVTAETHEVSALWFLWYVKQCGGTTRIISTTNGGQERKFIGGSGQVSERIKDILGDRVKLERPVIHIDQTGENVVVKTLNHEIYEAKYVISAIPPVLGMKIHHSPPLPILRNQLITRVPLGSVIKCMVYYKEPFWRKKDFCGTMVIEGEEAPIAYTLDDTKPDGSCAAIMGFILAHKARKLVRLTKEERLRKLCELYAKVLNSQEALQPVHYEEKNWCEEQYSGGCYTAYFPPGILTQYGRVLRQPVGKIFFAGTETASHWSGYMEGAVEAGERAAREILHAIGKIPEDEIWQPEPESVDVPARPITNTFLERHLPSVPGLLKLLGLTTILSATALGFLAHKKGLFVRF

Cytochrome P450 1A2 = target: T2, Cytochrome P450 1A2 (Homo sapiens, UniProt P05177); assay: Inhibition of human CYP1A2 assessed as ethoxyresorufin O-deethylation after 20 mins by fluorescence plate reader; assay type: ADME
T2 sequence (P05177 whole entry): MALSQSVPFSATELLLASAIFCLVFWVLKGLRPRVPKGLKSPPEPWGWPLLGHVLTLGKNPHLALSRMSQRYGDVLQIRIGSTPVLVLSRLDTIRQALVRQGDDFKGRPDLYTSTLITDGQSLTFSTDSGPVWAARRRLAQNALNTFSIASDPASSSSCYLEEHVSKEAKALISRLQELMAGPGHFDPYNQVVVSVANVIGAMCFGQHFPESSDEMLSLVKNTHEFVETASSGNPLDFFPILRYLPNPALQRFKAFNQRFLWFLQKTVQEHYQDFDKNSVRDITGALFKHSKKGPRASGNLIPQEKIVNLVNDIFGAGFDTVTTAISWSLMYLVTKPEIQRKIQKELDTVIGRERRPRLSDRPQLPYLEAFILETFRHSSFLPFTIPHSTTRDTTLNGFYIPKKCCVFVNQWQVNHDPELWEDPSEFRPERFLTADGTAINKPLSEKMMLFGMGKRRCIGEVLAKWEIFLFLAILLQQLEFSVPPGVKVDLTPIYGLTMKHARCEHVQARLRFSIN

MAO-A = target: T3, MAO-A (Rattus norvegicus, UniProt P21396); assay: Inhibition of rat forebrain MAO-A using [14C]5-HT as substrate at 30 uM preincubated for 20 mins followed by substrate addition measured after 5 mins by liquid scintillation counting analysis; settings: probe [14C]5-HT
T3 sequence (P21396 whole entry): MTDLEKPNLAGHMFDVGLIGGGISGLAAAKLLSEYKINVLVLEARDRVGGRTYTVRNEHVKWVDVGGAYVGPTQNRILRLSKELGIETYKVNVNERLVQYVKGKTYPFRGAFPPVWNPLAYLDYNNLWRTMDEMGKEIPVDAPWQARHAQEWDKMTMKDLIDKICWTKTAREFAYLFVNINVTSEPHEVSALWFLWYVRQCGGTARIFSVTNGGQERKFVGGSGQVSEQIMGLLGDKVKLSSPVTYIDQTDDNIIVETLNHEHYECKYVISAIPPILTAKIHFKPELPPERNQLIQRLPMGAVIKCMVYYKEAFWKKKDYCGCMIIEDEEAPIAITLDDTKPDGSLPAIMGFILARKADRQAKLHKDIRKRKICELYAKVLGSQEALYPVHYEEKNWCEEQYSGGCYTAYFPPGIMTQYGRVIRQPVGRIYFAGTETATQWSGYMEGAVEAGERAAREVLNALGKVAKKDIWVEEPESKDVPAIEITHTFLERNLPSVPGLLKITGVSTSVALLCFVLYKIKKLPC

Cytochrome P450 2C9 = Cytochrome P450 2C9 (Homo sapiens, UniProt P11712); assay: Inhibition of human CYP2C9 assessed as tolbutamide hydroxylation after 20 mins by LC-MS/MS analysis; assay type: ADME
Cytochrome P450 2C9, sequence (P11712 whole entry): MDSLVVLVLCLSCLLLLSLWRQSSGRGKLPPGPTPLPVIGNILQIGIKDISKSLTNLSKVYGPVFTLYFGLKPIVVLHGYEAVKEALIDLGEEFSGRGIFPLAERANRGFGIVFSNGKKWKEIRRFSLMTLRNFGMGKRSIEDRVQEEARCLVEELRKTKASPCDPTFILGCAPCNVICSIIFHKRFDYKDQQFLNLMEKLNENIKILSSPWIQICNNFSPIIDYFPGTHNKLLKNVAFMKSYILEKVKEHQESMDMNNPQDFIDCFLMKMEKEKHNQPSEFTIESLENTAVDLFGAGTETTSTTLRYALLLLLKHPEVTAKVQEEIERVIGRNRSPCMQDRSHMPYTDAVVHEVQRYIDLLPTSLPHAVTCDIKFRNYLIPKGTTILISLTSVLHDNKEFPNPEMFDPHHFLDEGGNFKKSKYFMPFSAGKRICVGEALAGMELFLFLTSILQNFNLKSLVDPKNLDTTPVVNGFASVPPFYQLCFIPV

Cytochrome P450 3A4 = Cytochrome P450 3A4 (Homo sapiens, UniProt P08684); assay: Inhibition of human CYP3A4 assessed as terfenadine hydroxylation after 20 mins by LC-MS/MS analysis; assay type: ADME
Cytochrome P450 3A4, sequence (P08684 whole entry): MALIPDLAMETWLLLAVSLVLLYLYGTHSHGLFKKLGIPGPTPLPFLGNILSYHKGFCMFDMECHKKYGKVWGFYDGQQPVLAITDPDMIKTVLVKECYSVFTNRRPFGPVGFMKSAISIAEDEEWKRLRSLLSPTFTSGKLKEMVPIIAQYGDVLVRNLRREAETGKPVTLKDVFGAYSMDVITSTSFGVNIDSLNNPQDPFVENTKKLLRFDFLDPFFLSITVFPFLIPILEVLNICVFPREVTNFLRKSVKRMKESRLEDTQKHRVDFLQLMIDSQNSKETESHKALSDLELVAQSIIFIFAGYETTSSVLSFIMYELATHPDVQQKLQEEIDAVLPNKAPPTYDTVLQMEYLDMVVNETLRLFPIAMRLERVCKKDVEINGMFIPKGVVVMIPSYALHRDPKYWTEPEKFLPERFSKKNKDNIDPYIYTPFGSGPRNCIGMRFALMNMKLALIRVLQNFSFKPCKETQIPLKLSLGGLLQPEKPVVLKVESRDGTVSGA

| Compound | Ratio (Staphylococcus aureus [1]) | MIC (Haemophilus influenzae) | MIC (Moraxella catarrhalis) | MIC (Enterococcus faecium) | MIC (Staphylococcus aureus [2]) | MIC (Staphylococcus aureus [3]) | Ratio (Staphylococcus aureus [4]) | MIC (Enterococcus faecalis) | ED50 (Staphylococcus aureus [5]) | MIC (Staphylococcus aureus [6]) | MIC (Streptococcus pneumoniae [7]) | MIC (Staphylococcus aureus [8]) | MIC (Streptococcus pneumoniae [9]) | ED50 (Staphylococcus aureus [10]) | pIC50 (Cytochrome P450 2D6) | inhibition at 10 min, 30 µM (MAO-B) | pIC50 (Cytochrome P450 1A2) | inhibition at 5 min, 30 µM (MAO-A) | pIC50 (Cytochrome P450 2C9) | pIC50 (Cytochrome P450 3A4) |
| --- | --- | --- | --- | --- | --- | --- | --- | --- | --- | --- | --- | --- | --- | --- | --- | --- | --- | --- | --- | --- |
| CC(=O)NC[C@H]1CN(c2ccc(-c3ccc4ccnn4c3)c(F)c2)C(=O)O1 | 8 | 8 µg/mL (≈ 21.7 µM) | 2 µg/mL (≈ 5.43 µM) | 0.25 µg/mL (≈ 0.679 µM) | 2 µg/mL (≈ 5.43 µM) | 0.5 µg/mL (≈ 1.36 µM) | 4 | 0.5 µg/mL (≈ 1.36 µM) | > 10 mg/kg | 0.25 µg/mL (≈ 0.679 µM) | ≤ 0.063 µg/mL | 0.25 µg/mL (≈ 0.679 µM) | ≤ 0.063 µg/mL | – | – | – | – | – | – | – |
| CC(=O)NC[C@H]1CN(c2ccc(-c3ccc4cncn4c3)c(F)c2)C(=O)O1 | 2 | 8 µg/mL (≈ 21.7 µM) | 4 µg/mL (≈ 10.9 µM) | 0.5 µg/mL (≈ 1.36 µM) | 4 µg/mL (≈ 10.9 µM) | 1 µg/mL (≈ 2.71 µM) | 2 | 0.5 µg/mL (≈ 1.36 µM) | 3.05 mg/kg | 0.5 µg/mL (≈ 1.36 µM) | ≤ 0.063 µg/mL | 0.25 µg/mL (≈ 0.679 µM) | ≤ 0.063 µg/mL | – | – | – | – | – | – | – |
| CC(=O)NC[C@H]1CN(c2ccc(-c3ccc4nccn4c3)c(F)c2)C(=O)O1 | 4 | 4 µg/mL (≈ 10.9 µM) | 8 µg/mL (≈ 21.7 µM) | 0.25 µg/mL (≈ 0.679 µM) | 8 µg/mL (≈ 21.7 µM) | 1 µg/mL (≈ 2.71 µM) | 2 | 0.5 µg/mL (≈ 1.36 µM) | 3.17 mg/kg | 0.5 µg/mL (≈ 1.36 µM) | ≤ 0.063 µg/mL | 0.5 µg/mL (≈ 1.36 µM) | ≤ 0.063 µg/mL | 3.05 mg/kg | – | – | – | – | – | – |
| CC(=O)NC[C@H]1CN(c2ccc(-c3ccn4ccnc4c3)c(F)c2)C(=O)O1 | 8 | 2 µg/mL (≈ 5.43 µM) | 2 µg/mL (≈ 5.43 µM) | 0.5 µg/mL (≈ 1.36 µM) | 2 µg/mL (≈ 5.43 µM) | 0.25 µg/mL (≈ 0.679 µM) | 8 | 0.25 µg/mL (≈ 0.679 µM) | 1.09 mg/kg | 0.25 µg/mL (≈ 0.679 µM) | ≤ 0.063 µg/mL | 0.25 µg/mL (≈ 0.679 µM) | ≤ 0.063 µg/mL | 1.05 mg/kg | < 4.70 | 52.8% | < 4.70 | 54.8% | < 4.70 | < 4.70 |
| CC(=O)NC[C@H]1CN(c2ccc(-c3ccc4ncnn4c3)c(F)c2)C(=O)O1 | 2 | 4 µg/mL (≈ 10.8 µM) | 8 µg/mL (≈ 21.7 µM) | 0.5 µg/mL (≈ 1.35 µM) | 8 µg/mL (≈ 21.7 µM) | 0.5 µg/mL (≈ 1.35 µM) | 4 | 0.5 µg/mL (≈ 1.35 µM) | – | 0.5 µg/mL (≈ 1.35 µM) | ≤ 0.063 µg/mL | 0.5 µg/mL (≈ 1.35 µM) | ≤ 0.063 µg/mL | – | – | – | – | – | – | – |
